According to the C3SDB collision cross section collection:

Conditions: [M+H]+; instrument: TW
With `C/C(=N\C#N)N(C)Cc1ccc(Cl)nc1` [Acetamiprid] the “collision cross section (N2)” value was 150.24 Å².
In the case of `CC(=O)c1ccc2c(c1)N(CCCN(C)C)c1ccccc1S2` [Acetopromazine], the “collision cross section (N2)” value is reported as 160.5 Å².
For `C[C@H]1C[C@H]2[C@@H]3CCC4=CC(=O)C=C[C@]4(C)[C@@]3(Cl)[C@@H](O)C[C@]2(C)[C@@]1(O)C(=O)CO` [Beclomethasone], the “collision cross section (N2)” value was 189.2 Å².
For `CC(C)N1C(=O)N(c2ccccc2)CS/C1=N\C(C)(C)C` [Buprofezin], the “collision cross section (N2)” value was 173.58 Å².
With `CC1=C(C(=O)Nc2ccccc2)SCCO1` [Carboxin] the “collision cross section (N2)” value was 149.35 Å².
With `CC(C(=O)O)c1ccc2c(c1)[nH]c1ccc(Cl)cc12` (centres undefined) [Carprofen] the “collision cross section (N2)” value was 156.1 Å².
For `Nc1cnn(-c2ccccc2)c(=O)c1Cl` [Chloridazon], the “collision cross section (N2)” value was 141.59 Å².
With `CN(C)C(=O)Nc1ccc(Oc2ccc(Cl)cc2)cc1` [Chloroxuron] the “collision cross section (N2)” value was 172.24 Å².
For `CN(C)CCCN1c2ccccc2Sc2ccc(Cl)cc21` [Chlorpromazine], the “collision cross section (N2)” value was 169.1 Å².
In the case of `CN(C)[C@@H]1C(O)=C(C(=N)O)C(=O)[C@@]2(O)C(O)=C3C(=O)c4c(O)ccc(Cl)c4[C@@](C)(O)[C@H]3C[C@@H]12` [Chlortetracycline], the “collision cross section (N2)” value is reported as 203.9 Å².
In the case of `Cc1ccc(/N=C(/O)N(C)C)cc1Cl` [Chlortoluron], the “collision cross section (N2)” value is reported as 145.96 Å².
For `CC(C)(C)NCC(O)c1cc(Cl)c(N)c(Cl)c1` (centres undefined) [Clenbuterol], the “collision cross section (N2)” value was 159.2 Å².
For `Cc1ccc(-c2c(Cl)nc(C#N)n2S(=O)(=O)N(C)C)cc1` [Cyazofamid], the “collision cross section (N2)” value was 166.69 Å².
With `CCN(CC)C(=O)c1cccc(C)c1` [DEET] the “collision cross section (N2)” value was 142.48 Å².
For `COc1ccc(/C(=C/C(=O)N2CCOCC2)c2ccc(Cl)cc2)cc1OC` [Dimethomorph I], the “collision cross section (N2)” value was 199.03 Å².
For `CCCCc1c(C)nc(NCC)[nH]c1=O` [Ethirimol], the “collision cross section (N2)” value was 150.65 Å².
For `CCCSP(=O)(OCC)SCCC` [Ethoprophos], the “collision cross section (N2)” value was 149.27 Å².
With `N#CC(CCc1ccc(Cl)cc1)(Cn1cncn1)c1ccccc1` (centres undefined) [Fenbuconazole] the “collision cross section (N2)” value was 182.44 Å².
For `Cc1nn(C)c(Oc2ccccc2)c1/C=N/OCc1ccc(C(=O)OC(C)(C)C)cc1` [Fenpyroximate], the “collision cross section (N2)” value was 215.89 Å².
In the case of `N#Cc1nn(-c2c(Cl)cc(C(F)(F)F)cc2Cl)c(N)c1S(=O)C(F)(F)F` (centres undefined) [Fipronil], the “collision cross section (N2)” value is reported as 180.77 Å².
In the case of `CC1(C)OC(=O)C(OCC2CC2)=C1c1ccc(S(C)(=O)=O)cc1` [Firocoxib], the “collision cross section (N2)” value is reported as 182.1 Å².
With `Nc1c(Cl)c(F)nc(OCC(=O)O)c1Cl` [Fluroxypyr] the “collision cross section (N2)” value was 140.69 Å².
With `CCCCOC(=O)N(C)SN(C)C(=O)Oc1cccc2c1OC(C)(C)C2` [Furathiocarb] the “collision cross section (N2)” value was 190.73 Å².
For `O=C(CCCN1CCC(O)(c2ccc(Cl)cc2)CC1)c1ccc(F)cc1` [Haloperidol], the “collision cross section (N2)” value was 193.9 Å².
With `CC1C(c2ccc(Cl)cc2)SC(=O)N1C(=O)NC1CCCCC1` (centres undefined) [Hexythiazox] the “collision cross section (N2)” value was 183.83 Å².
With `O=[N+]([O-])c1cnc(CO)n1CCO` [Hydroxymetronidazole] the “collision cross section (N2)” value was 128.2 Å².
In the case of `C=CCOC(Cn1ccnc1)c1ccc(Cl)cc1Cl` (centres undefined) [Imazalil], the “collision cross section (N2)” value is reported as 164.99 Å².
With `O=[N+]([O-])/N=C1\NCCN1Cc1ccc(Cl)nc1` [Imidacloprid] the “collision cross section (N2)” value was 149.62 Å².
In the case of `CO[C@@H]1[C@@H](O[C@@H]2O[C@H](C)[C@@H](O[C@H]3C[C@@](C)(O)[C@@H](OC(=O)CC(C)C)[C@H](C)O3)[C@H](N(C)C)[C@H]2O)[C@@H](CC=O)C[C@@H](C)[C@@H](O)/C=C/C=C/C[C@@H](C)OC(=O)C[C@H]1OC(C)=O` [Josamycin], the “collision cross section (N2)” value is reported as 306.8 Å².
For `CN1CCN(c2c(F)cc3c(=O)c(C(=O)O)cn4c3c2OCN4C)CC1` [Marbofloxacin], the “collision cross section (N2)” value was 179.6 Å².
With `Cc1cccc(Nc2ccccc2C(=O)O)c1C` [Mefenamic acid] the “collision cross section (N2)” value was 150.5 Å².
In the case of `Cc1nnc(-c2ccccc2)c(=O)n1N` [Metamitron], the “collision cross section (N2)” value is reported as 140.93 Å².
For `CNC(=O)N(C)c1nc2ccccc2s1` [Methabenzthiazuron], the “collision cross section (N2)” value was 142.47 Å².
With `CON(C)C(=O)Nc1ccc(Br)cc1` [Metobromuron] the “collision cross section (N2)” value was 145.41 Å².
For `Cc1ncc([N+](=O)[O-])n1CCO` [Metronidazole], the “collision cross section (N2)” value was 124.2 Å².
With `O=C(O)\C2=C\N(c1cc(c(F)cc1C2=O)N3CCNCC3)CC` [Norfloxacine] the “collision cross section (N2)” value was 171 Å².
With `O=C(NC(=O)c1c(F)cccc1F)Nc1ccc(OC(F)(F)C(F)OC(F)(F)F)c(Cl)c1` (centres undefined) [Novaluron] the “collision cross section (N2)” value was 196.35 Å².
In the case of `C/N=C(/O)CSP(=O)(OC)OC` [Omethoate], the “collision cross section (N2)” value is reported as 134.62 Å².
In the case of `CCOP(=O)(OCC)Oc1ccc([N+](=O)[O-])cc1` [Paraoxon-ethyl], the “collision cross section (N2)” value is reported as 156.76 Å².
In the case of `O=C(Nc1ccccc1)N(Cc1ccc(Cl)cc1)C1CCCC1` [Pencycuron], the “collision cross section (N2)” value is reported as 179.71 Å².
With `Cc1nc(N(C)C)nc(OC(=O)N(C)C)c1C` [Pirimicarb] the “collision cross section (N2)” value was 154.68 Å².
For `CN1C(/C(O)=N/c2ccccn2)=C(O)c2ccccc2S1(=O)=O` [Piroxicam], the “collision cross section (N2)” value was 170.9 Å².
For `O=C2\C(=C(/N(N2c1ccccc1)C)C)C(C)C` [Propyphenazone], the “collision cross section (N2)” value was 150 Å².
For `CCCN(CCC)C(=O)SCc1ccccc1` [Prosulfocarb], the “collision cross section (N2)” value was 156.95 Å².
For `COc1nc(C)nc(NC(=O)NS(=O)(=O)c2ccccc2CCC(F)(F)F)n1` [Prosulfuron], the “collision cross section (N2)” value was 187.01 Å².
In the case of `COC(=O)N(OC)c1ccccc1COc1ccn(-c2ccc(Cl)cc2)n1` [Pyraclostrobin], the “collision cross section (N2)” value is reported as 183.19 Å².
With `CN1CCCN=C1/C=C/c1cccs1` [Pyrantel] the “collision cross section (N2)” value was 143 Å².
For `CC(COc1ccc(Oc2ccccc2)cc1)Oc1ccccn1` (centres undefined) [Pyriproxifen], the “collision cross section (N2)” value was 182.76 Å².
With `C=C1C[C@@]23CC[C@H]4[C@@](C)(CCC[C@@]4(C)C(=O)O[C@@H]4O[C@H](CO)[C@@H](O)[C@H](O)[C@H]4O)[C@@H]2CC[C@]1(O[C@@H]1O[C@H](CO)[C@@H](O)[C@H](O[C@@H]2O[C@H](CO)[C@@H](O)[C@H](O)[C@H]2O)[C@H]1O[C@@H]1O[C@H](CO)[C@@H](O)[C@H](O)[C@H]1O)C3` [Rebaudioside A] the “collision cross section (N2)” value was 299.48 Å².
In the case of `Fc1ccc(cc1)N\3c2cc(c(F)cc2C(=O)C(/C(=O)O)=C/3)N4CCNCC4` [Sarafloxacine], the “collision cross section (N2)” value is reported as 202 Å².
For `CCNc1nc(Cl)nc(NCC)n1` [Simazine], the “collision cross section (N2)” value was 142.09 Å².
With `C[C@]12Cc3cn[nH]c3C[C@@H]1CC[C@@H]1[C@@H]2CC[C@@]2(C)[C@H]1CC[C@]2(C)O` [Stanozolol] the “collision cross section (N2)” value was 185.2 Å².
For `C=C1C[C@@]23CC[C@H]4[C@@](C)(CCC[C@@]4(C)C(=O)O)[C@@H]2CC[C@]1(O[C@@H]1O[C@H](CO)[C@@H](O)[C@H](O)[C@H]1O[C@@H]1O[C@H](CO)[C@@H](O)[C@H](O)[C@H]1O)C3` [Steviolbioside], the “collision cross section (N2)” value was 235.78 Å².
For `Cc1ccnc(NS(=O)(=O)c2ccc(N)cc2)n1` [Sulfamerazine], the “collision cross section (N2)” value was 154.8 Å².
